Source: PubChem BioAssay AID1421 (Emory University Molecular Libraries Screening Center, 2008)
Active and inactive are the calls of the source. How the calls were made is not given here.

These compounds were tested against Prostaglandin E2 receptor EP2 subtype (Homo sapiens) (UniProt P43116) (assay: EP2 receptor modulators, dose response, cell-based, human EP2, PGE2 EC50 shift (AID 1421)). Settings: EP2-expressing cells, PGE2 EC50 shift by compound.
Prostaglandin E2 receptor EP2 subtype (Homo sapiens), sequence (P43116 whole entry, looked up): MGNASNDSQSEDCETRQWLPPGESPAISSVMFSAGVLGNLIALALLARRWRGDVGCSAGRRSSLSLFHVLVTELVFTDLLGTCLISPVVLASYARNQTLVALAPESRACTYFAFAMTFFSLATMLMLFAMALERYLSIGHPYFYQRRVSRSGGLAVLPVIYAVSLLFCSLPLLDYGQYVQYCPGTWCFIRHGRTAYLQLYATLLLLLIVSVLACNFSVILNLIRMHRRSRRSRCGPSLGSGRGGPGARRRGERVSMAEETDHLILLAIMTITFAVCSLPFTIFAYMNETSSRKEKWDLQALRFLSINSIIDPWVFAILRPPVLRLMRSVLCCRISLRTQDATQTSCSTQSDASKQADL

Compound	outcome
CC(C)CCNC(=O)c1c(N)n(CC2CCCO2)c2nc3ccccc3nc12 (centres undefined)	active
CCCOc1ccc(Cl)cc1CNc1ccccc1	active
CCOc1cc(-c2noc(-c3ccncc3)n2)cc(Br)c1OC	active
CC(C)OC(=O)c1c(NC(=O)c2cccs2)sc2c1CCCC2	active
CSc1ncc2c(n1)-c1cc(C)ccc1SC2	active
COC(=O)c1sc2nc(N3CCCCC3)c3c(c2c1N)CCCC3	active
COc1ccccc1NC(=O)c1c(C)oc2c1CCCC2	active
CC(C)Sc1cc(N2CCOCC2)nc(-c2ccccc2)n1	active

Same assay, conditions: EP2-expressing cells, PGE2 EC50 shift by compound; measured here: PGE2 EC50 at 6.7 uM compound

Compound	PGE2 EC50 with compound [nM]
Cc1ccc(C(=O)C2=C(O)C(=O)N(CCCn3ccnc3)C2c2ccc(OC(C)C)cc2)o1 (centres undefined)	1.01
CC(C)CCNC(=O)c1c(N)n(CC2CCCO2)c2nc3ccccc3nc12 (centres undefined)	0.95
Nc1ccccc1CCCC(=O)O	0.98
COC(=O)CSc1nc(Cc2ccccc2)nc2ccccc12	2.72
CC(C)NC(=S)NN=C1CCCCCCCCCCC1	0.97
O=C(Nc1nc(-c2cccs2)c(-c2ccccc2)s1)c1ccco1	2.42
Cc1cc(C)c2c(n1)sc1c(=O)n(Cc3ccccc3Cl)nnc12	0.92
O=C(c1cccs1)N1N=C(c2ccccc2)CC1c1ccc(O)cc1 (centres undefined)	0.83
COc1cc2c(cc1OC)-c1cc(Nc3ccc4c(c3)OCCO4)nc(=O)n1CC2	2.5
Cc1ccc(C(C)C)c(OCCn2c(=O)oc3ccccc32)c1	2.6
CN(C)Cc1ccc(F)cc1Sc1cc(Cl)ccc1Cl	0.77
COCCNC(=O)C(c1ccc(F)cc1)N(CC1CCCO1)C(=O)CCC(=O)Nc1ccccn1 (centres undefined)	2.09
CC(C)Cc1nc(SCc2cccnc2)c2c(=O)n(C)c(=O)n(C)c2n1	0.67
CCCSc1nc(N2CCCC2)c2c(c1C#N)CC(C)(C)OC2	1.15
CC(C)Oc1ccc(/C=C(/NC(=O)c2ccccc2)C(=O)NCCC(=O)O)cc1	0.92
N#Cc1c(-c2c(Cl)cccc2Cl)noc1/C=C/Nc1ccc(C(=O)O)cc1	0.7
Cc1noc(C)c1CSc1ncnc2sc3c(c12)CCC(C)C3 (centres undefined)	1.06
CC(C)c1nc(SCc2c(F)cccc2Cl)c2c(=O)n(C)c(=O)n(C)c2n1	0.55
c1ccc(Cc2nnc(Sc3ccccc3)c3ccccc23)cc1	2.76
CCCOc1ccc(Cl)cc1CNc1ccccc1	1.22
CCOc1cc(-c2noc(-c3ccncc3)n2)cc(Br)c1OC	0.84
CCOC(=O)C1=C(CC)Nc2ccccc2N=C1NC(=O)c1oc2ccccc2c1C	1.19

Compound	PGE2 EC50 with compound [nM]
CC(C)(C)n1nnnc1C(c1ccncc1)N(Cc1ccccc1)Cc1ccco1 (centres undefined)	1.03
O=C(c1cccs1)c1cn(Cc2ccccc2Cl)c2ccccc12	2.63
Cc1cc(NC(=O)Cn2nnc3sc4c(c3c2=O)CCC(C(C)(C)C)C4)no1 (centres undefined)	0.98
c1ccc(CCc2ccccc2-c2nc(-c3ccccn3)no2)cc1	0.32
c1ccc(-c2csc3ncnc(N4CCc5ccccc5C4)c23)cc1	1.1
COC(=O)c1c(NC(=O)Cc2cccs2)sc2c1CCC(C)C2 (centres undefined)	0.94
c1ccn(-c2ncnc3sc4c(c23)CCCC4)c1	1.45
COC(=O)c1ccc(-n2nc(C(F)(F)F)c3c2-c2ccoc2CC3)cc1	0.79
CC(C)OC(=O)c1c(NC(=O)c2cccs2)sc2c1CCCC2	1.01
CCC(C)(C)n1nnnc1C(c1ccncc1)N1CCC(Cc2ccccc2)CC1 (centres undefined)	1.85
COc1ccc2c(-c3ccccc3)cc(N3CCOCC3)nc2c1	0.74
CCOc1ccc(C(C)=O)cc1CC(C(N)=O)C(N)=O	1.11
C=CCOc1ccc2c(c1)C(=NO)c1cc(OCC=C)ccc1-2	0.62
COc1cc2cc(Br)cc(Br)c2nc1C	2.62
CCOC(=O)c1oc2ccccc2c1NC(=O)c1cccc(OC)c1OC	0.98
CCCc1cc(-c2n[nH]c(=S)n2Cc2ccccc2)cs1	1.36
C=CCOc1ccccc1CNc1ccccc1C	1.42
CCOC(=O)c1c(C2COc3ccccc3O2)csc1N (centres undefined)	1.39
COC(=O)c1cc2ccsc2n1Cc1cccc(F)c1	0.95
O=C(Nc1ccccc1N1CCCCC1)c1ccc(Cl)c([N+](=O)[O-])c1	1.23
CCOC(=O)c1ccccc1NC(=O)CSc1ccccc1	1.07
O=C(O)/C=C/C(O)c1ccc(Cl)cc1 (centres undefined)	0.97

Compound	PGE2 EC50 with compound [nM]
CSc1ncc2c(n1)-c1cc(C)ccc1SC2	0.93
C/C(=N\N(Cc1ccccc1)c1ccccc1)c1cccnc1	1.38
CC(/C=C1\SC(=S)N(C(C(=O)O)C(C)C)C1=O)=C\c1ccccc1 (centres undefined)	0.86
Cc1ccc(C)c(CN2C(=O)C(C)Oc3ccc(C)cc32)c1 (centres undefined)	0.31
COc1ccc(C2=Nn3c(nnc3-c3ccc(OC)cc3)SC2)cc1	1.28
Cc1ccc(CSc2nc3ccccc3cc2C=O)cc1	0.73
COC(=O)c1ccc(CSc2ncnc3c2oc2ccccc23)o1	2.45
Cc1c(F)cccc1NC(=O)CCCCCC1NC(=O)NC1C (centres undefined)	1.84
O=c1c(O)c(-c2ccccc2)oc2ccc3occc3c12	0.74
CCN1CCN(c2c(Cl)cccc2NC(=O)c2ccc(Br)o2)CC1	2.53
CCN(CCO)c1ncnc2c1sc1nc(C(C)C)c3c(c12)CC(C)(C)OC3	0.69
CCOC(=O)CSc1nc(-c2ccccc2)nc2ccccc12	0.87
COC(=O)c1sc2nc(N3CCCCC3)c3c(c2c1N)CCCC3	0.85
CC1=CC(C)(C)N2C(=O)C3(SCC(=O)N3c3ccc(F)cc3)c3cc(C)cc1c32 (centres undefined)	1.12
CCOc1nc2cccc(C(=O)OC(C)OC(=O)OC3CCCCC3)c2n1Cc1ccc(-c2ccccc2-c2nn[nH]n2)cc1 (centres undefined)	1.42
CCOC(=O)c1ccccc1NC1c2ccccc2C(=O)N1c1cc(C)ccn1 (centres undefined)	1.13
Cc1sc(NC(=O)c2cccs2)c(C(=O)OC(C)C)c1C	2.6
COc1ccc(-c2noc(-c3ccccc3C(=O)Nc3cccnc3)n2)cc1	1.02
COC(=O)C1C(c2ccccc2)C(C(=O)OCc2ccco2)C1c1ccccc1 (centres undefined)	2.61
O=c1[nH]c(CSc2ncc(-c3ccc(F)cc3)n2Cc2ccco2)nc2ccccc12	0.71
CCOCC(=O)Nc1cc(C(F)(F)F)ccc1Oc1cccc(Br)c1	0.49
CC(C)c1ccc(OCC(=O)NC(=S)Nc2ccc3c4c(cccc24)CC3)cc1	3.13

Compound	PGE2 EC50 with compound [nM]
CCc1ccc2[nH]c(=O)c(CN(Cc3nnnn3C3CCCC3)C3CCCCC3)cc2c1	0.8
COc1ccc(N2CCN(c3nc4c(c(=O)[nH]c(=O)n4C)n3Cc3cccc(C)c3)CC2)cc1	0.7
CN(Cc1ccccc1)c1nc2c(c(=O)[nH]c(=O)n2C)n1Cc1ccccc1Cl	1.05
O=C(/C(=C/O)N=Nc1ccccc1)c1ccc(Cl)cc1	1.12
CCOP(=O)(c1ccccc1)c1nc(-c2ccccc2C)oc1N1CCCCC1 (centres undefined)	0.69
CCOC(=O)c1c(NC(=O)CSC(=S)N(C)C)sc(C)c1C	0.86
O=C(Nc1ccccc1Oc1ccccc1)c1cnccn1	0.78
COc1cccc(-c2nc(N3CC(C)CC(C)C3)c3ccccc3n2)c1O (centres undefined)	1.33
Cc1ccc(-n2c(SCC(=O)Nc3ccc4c(c3)OCO4)nnc2-c2ccoc2C)cc1	1.18
COc1ccc(-c2noc(-c3ccccc3-c3ccccc3)n2)cc1OC	0.31
Cc1nc(SCCC(=O)O)c2ccccc2n1	2.93
CCc1ccccc1NC(=S)N(Cc1ccco1)C(C)c1cccs1 (centres undefined)	0.9
Cc1nc2ccccn2c1C(=O)CSc1ccc(Cl)cc1Cl	1.47
COc1ccccc1NC(=O)c1c(C)oc2c1CCCC2	1.19
Cc1cc(=O)oc(C)c1C(=O)OC(C(=O)c1ccccc1)c1ccccc1 (centres undefined)	1.57
CC(C)Sc1cc(N2CCOCC2)nc(-c2ccccc2)n1	1.22
CN(C)Cc1ccccc1Sc1cccc2ccccc12	1.07
CCSC1=N/C(=C\c2ccccc2)C(=O)N1c1ccc(OC)cc1	0.75
Cc1cccc(Cn2c(N3CCN(c4ccccc4)CC3)nc3c2c(=O)n(C)c(=O)n3C)c1	0.94
Cc1cc(O)c(C=O)c2c1C(=O)Oc1c(C)c(O)c3c(c1O2)C(O)OC3=O (centres undefined)	0.76
Cc1cc(C)c2cc(C)c(SCC(=O)NCc3ccco3)nc2c1	1.03
COc1ccc(-c2c3c([nH]c(=S)c2C#N)CCC3)cc1	2.78

Compound	PGE2 EC50 with compound [nM]
CCN1C(c2ccccc2)C(C)C(=O)C(C)C1c1ccccc1 (centres undefined)	0.85
COc1ccc(OC)c(C(=O)CSc2nnc(Cc3cccs3)n2CCc2ccccc2)c1	1.33
O=C1COc2ccccc2N1Cc1ccccc1Cl	1.38
CCC(=O)N1CCN(c2nc(-c3ccccc3)c3c(c2C#N)CCCC3)CC1	0.91
CCSc1ccccc1C(=O)Nc1ccc([N+](=O)[O-])cc1OC	1.06
S=c1[nH]nc(-c2ccc3ccccc3n2)n1Cc1ccccc1	0.91
COc1ccc(-c2cc(-c3n[nH]c(=S)n3-c3cccc4ccccc34)[nH]n2)cc1	1.74
CSc1nc2ccccc2c(=O)n1Cc1ccc(F)cc1	0.87
O=C(COc1cccc2ccccc12)N1c2ccccc2CCc2ccccc21	1.19
CCOP(=O)(OCC)c1nc(-c2cccc3ccccc23)oc1N1CCCCC1	1.11
C(=N\N1CCN(C2c3ccccc3-c3ccccc32)CC1)/c1cccnc1	1.54
OCCCNc1nc(-c2ccc(Cl)cc2)nnc1-c1ccc(Br)cc1	1.11
O=C(c1ccc(Cl)cc1)c1oc2ccccc2c1CS(=O)(=O)c1ccccc1	2.88
CCOC(=O)c1c(NC(=O)CN2CCCCC2)sc2c1CCN(C(=O)OCC)C2	0.9
COC(=O)c1c(-c2ccc(F)cc2)csc1NC(=O)C1CCCO1 (centres undefined)	2.48
CSc1ncnc2sc(C)c(C)c12	1.22
O=c1c2ccccc2c2ccccc2c(=O)n1Cc1ccco1	1.09
CN(C)c1nccc(N(Cc2ccccc2)Cc2ccccc2)c1C#N	1.16
